Source: patent US20130225627A1, “DEXTROMETHORPHAN ANTITUSSIVE COMPOSITIONS” (Trinity Laboratories, Inc., priority 2010, published 2013)
Structures can show the parent of a compound that is named as a salt. Where two headings read alike, the source gives them in different places.

Assays:
rats [1] = system: rats
[2] = in vivo; cited from earlier work
females = details: cited from earlier work; for mean plasma bromide concentration at the end of the treatment: three menstrual cycles
[3] = rats, cited from earlier work
[4] = after oral ingestion; cited from earlier work
rats [5] = details: cited from earlier work
[6] = Ames test; cited from earlier work
[7] = cited from earlier work
[8] = Solubility of dextromethorphan hydrochloride in water; details: at the pH of the compositions of the present invention
Text: However, the compositions of the invention may contain sufficient levels of one or more cosolvents. Preferred cosolvents for this purpose include ethanol, propylene glycol, polyethylene glycol, glycerin, and sorbitol; more preferred cosolvents include ethanol, propylene glycol and glycerin.

thyroid gland = details: rats, diets containing 4800 or 19200 ppm NaBr; as soon as 3 days, constant during 12 weeks; cited from earlier work
healthy volunteers = details: cited from earlier work
rats [9] = details: cited from earlier work; remark: listed apart in the source

Structure (SMILES): Br [Bromide]
- No Observable Adverse Effect Level (NOAEL), effects on the thyroid (rats [1]; equivalent daily dose): 12 mg bromide/kg/day
- No Observable Adverse Effect Level (NOAEL), effects on the thyroid (rats [1]; expressed as bromide): 240 ppm
- half life [2]: 9 to 12 days
- mean plasma bromide concentration at the end of the treatment (females; 4 mg Br/kg/day): 3.22 mmol/L
- mean plasma bromide concentration at the end of the treatment (females; 9 mg Br/kg/day): 7.99 mmol/L
- quantitative analysis of the electroencephalogram (EEG) (females; 9 mg Br/kg/day): only a marginal effect
- clinical observation: effects on the thyroid or on the central nervous system (females; 4 and 9 mg Br/kg/day): did not show effects
- serum thyroxine, free thyroxine, triiodothyronine, thyrotropin and thyroxine-binding globulin (females; 4 and 9 mg Br/kg/day): In none of the three groups were significant changes observed
- half-life ([3]; chloride-free diet): 25 days
- half-life ([3]; normal): three
- absorption in the gastrointestinal tract [4]: rapidly and completely absorbed
- central nervous system effects (rats [5]; short-term toxicity studies, higher doses): motor incoordination of the hind legs and inhibition of grooming
- mutagenicity [6]: not mutagenic

Structure (SMILES): COc1ccc2c(c1)[C@]13CCCC[C@@H]1[C@H](C2)N(C)CC3 [Dextromethorphan Hydrobromide]
- solubility ([7]; at 20° C.): about 1.5 weight percent
- solubility ([7]; at 85° C.): about 25 wt. %

Structure (SMILES): COc1ccc2c(c1)[C@]13CCCC[C@@H]1[C@H](C2)N(C)CC3 [Dextromethorphan hydrochloride]
- solubility in water [8]: highly soluble

Structure (SMILES): [Br-].[Na+] [sodium bromide]
- thyroxine concentrations (thyroid gland): significantly decreased
- neurophysiological data (EEG and visual evoked response) (healthy volunteers; 9 mg Br/kg/day, within normal limits): shifts in the power of various spectral bands and a shift in mean frequency
- medical history, physical examination, haematology, clinical chemistry and urine analyses (healthy volunteers; 4 or 9 mg Br/kg/day, start versus end of study): Except for incidental nausea, no changes were observed
- serum free thyroxine, thyroxine-binding globulin, cortisol, oestradiol, progesterone, testosterone, thyrotropin, prolactin, LH, FSH (healthy volunteers; 4 or 9 mg Br/kg/day): No changes were observed
- mean plasma bromide concentration at the end of treatment (healthy volunteers; females, 4 mg Br/kg/day oral, three full cycles): 3.05 mmol/L
- mean plasma bromide concentration at the end of treatment (healthy volunteers; females, 9 mg Br/kg/day oral, three full cycles): 4.93 mmol/L
- serum thyroxine and triiodothyronine at the end of the study compared to pre-administration values (healthy volunteers; females, 9 mg Br/kg/day, all concentrations within normal limits): significant increase
- mean plasma bromide concentration at the end of treatment (healthy volunteers; males, 4 mg Br/kg/day oral, 12 weeks): 2.14 millimoles/liter
- mean plasma bromide concentration at the end of treatment (healthy volunteers; males, 9 mg Br/kg/day oral, 12 weeks): 4.30 millimoles/liter
- effects on reproduction (rats [9]; 1200 ppm): no effects on reproduction were observed
- fertility and viability of the offspring (rats [9]; 4800 ppm): reduced
- fertility (rats [9]; 19200 ppm sodium bromide, reversible): complete infertility
- No Observable Adverse Effect Level (NOAEL), effects on the thyroid (rats [5]; expressed as sodium bromide): 300 ppm
- levels of thyroxine, growth hormone, testosterone and corticosterone (rats [5]; special studies): decreased levels
- thyroid-stimulating hormone (TSH) and insulin (rats [5]; special studies): increased
